Patent publication US20260223841A1 (priority 2023, published 2026)
Like-named read-outs stand apart in the source and are kept apart here.

What was measured:
[1] = test system: Xylella fastidiosa subsp. multiplex IVIA5901; assay: microbe, parasite or virus in culture; format: cell-based; details: 0.5 h, read-out: minimum bactericidal concentration (MBC)
[2] = test system: Xylella fastidiosa subsp. pauca DeDonno; assay: microbe, parasite or virus in culture; format: cell-based; details: 0.5 h, read-out: minimum bactericidal concentration (MBC)
[3] = test system: Erwinia amylovora EPS101; format: cell-based
[4] = test system: Xylella fastidiosa subsp. fastidiosa IVIA5387.2; format: in vivo, Prunus dulcis; details: 33 mg/ml trunk microinjection, 2 mg/plant, preventive + curative
[5] = test system: Liberibacter crescens strain BT-1 (cultured surrogate for Candidatus Liberibacter spp.); details: 100 and 250 μg/ml; 30 or 120 minutes of contact
[6] = test system: Xylella fastidiosa subsp. fastidiosa IVIA5387.2
[7] = test system: Liberibacter crescens strain BT-1 (cultured surrogate for Candidatus Liberibacter spp.); assay: microbe, parasite or virus in culture; details: 0.5 h, read-out: minimum bactericidal concentration (MBC)
[8] = test system: Xylella fastidiosa subsp. fastidiosa IVIA5387.2; assay: microbe, parasite or virus in culture; details: 0.5 h, read-out: minimum bactericidal concentration (MBC)
[9] = 50 μg/ml, after 30 min of contact
[10] = 50 μg/ml, after 120 min of contact

`CCCCCCCCCCCC(=O)OCC(O)CO` (stereo not shown) [Compound of formula (I), 2,3-dihydroxypropyl dodecanoate] was tested, and the MBC [1] was < 250 mg/L, the MBC [2] was < 250 mg/L and the “bactericidal effect (bacterial growing, not quantitative)” value [3] was “no bactericidal effect”. For the same compound, the “severity scale score (almond leaf scorch, 0-5)” value (shortened to “severity scale score”) ([4]; 55 days after infection) was 0.11, the “severity scale score” value ([4]; 62 days after infection) was 0.44 and the “severity scale score” value ([4]; 82 days after infection) was 0.42. For the same compound, the “severity scale score” value ([4]; 115 days after infection) was 1.17, the “severity scale score” value ([4]; 140 days after infection) was 2.33 and the “mortality (no growth observed)” value [5] was “about 100%”. For the same compound, the survival [6, 9] was “about 27.6%”, the “survival (log CFU/ml)” value [6, 9] was 2.26 log CFU/ml and the survival [6, 10] was ~23.1%. For the same compound, the “survival (Log CFU/ml)” value [6, 10] was 1.87 Log CFU/ml, the “mortality (no growth observed)” value ([6]; 100 and 75 μg/ml, 30 or 120 minutes of contact) was “about 100%” and the MBC [7] was < 100 mg/L. It also gave an MBC [8] of ~50 mg/L.
